Article PMC5779714, “Metallochaperone UreG serves as a new target for design of urease inhibitor: A novel strategy for development of antimicrobials” (PLoS Biology, 2018)
Where two headings read alike, the source gives them in different places.

Experiments:
[1] = test system: AGS cells with H. pylori infection; assay: AGS cells with H. pylori infection, inhibitors administrated to the AGS cells (S20 Fig); type: cell-based, human; settings: 10 μM administrated to AGS cells with H. pylori infection
Text: As expected, low viability of AGS with the supplement of cmpd4 and cmpd8 was observed due to the toxicity of small compounds to mammalian cells. […] (PNG) Click here for additional data file.

[2] = target: T1, UreG (Helicobacter pylori, UniProt Q09066); assay: biochemical; type: biochemical, H. pylori; settings: for inhibition at 20 µM: read-out: inhibition of the GTPase activity of UreG
Experimental: A Malachite Green Phosphate Assay Kit (Abcam) was utilized to quantify the hydrolysis of GTP by UreG under various conditions. […] GTPase activity of UreG was triggered through the addition of 10 mM KHCO3, after which the reaction was incubated at 37°C for 30 min; then, the free phosphate from hydrolysis of GTP was determined. […] To eliminate the potential effect of small compounds on malachite green assay, the assay included a subtraction of the absorbance of reaction with the same amounts of compounds but without UreG enzyme for each reading.

[3] = target: T1, UreG; assay: biochemical; type: binding, H. pylori; settings: for ΔTm at 50 µM: read-out: thermal shift on the melting temperature of UreG
[4] = UreG + compound 50μM, Temperature 30.19
[5] = UreG + compound 50μM, Temperature 30.56
[6] = UreG + compound 50μM, Temperature 30.94
[7] = UreG + compound 50μM, Temperature 31.33
[8] = UreG + compound 50μM, Temperature 31.72
[9] = UreG + compound 50μM, Temperature 32.09
[10] = UreG + compound 50μM, Temperature 32.47
[11] = UreG + compound 50μM, Temperature 32.85
[12] = UreG + compound 50μM, Temperature 33.30
[13] = UreG + compound 50μM, Temperature 33.65
[14] = UreG + compound 50μM, Temperature 34.08
[15] = UreG + compound 50μM, Temperature 34.47
[16] = UreG + compound 50μM, Temperature 34.84
[17] = UreG + compound 50μM, Temperature 35.21
[18] = UreG + compound 50μM, Temperature 35.58
[19] = UreG + compound 50μM, Temperature 35.96
[20] = UreG + compound 50μM, Temperature 36.34
[21] = UreG + compound 50μM, Temperature 36.71
[22] = UreG + compound 50μM, Temperature 37.48
[23] = UreG + compound 50μM, Temperature 37.86
[24] = UreG + compound 50μM, Temperature 38.23
[25] = UreG + compound 50μM, Temperature 38.61
[26] = UreG + compound 50μM, Temperature 38.99
[27] = UreG + compound 50μM, Temperature 39.38
[28] = UreG + compound 50μM, Temperature 39.76
[29] = UreG + compound 50μM, Temperature 40.14
[30] = UreG + compound 50μM, Temperature 40.52
[31] = UreG + compound 50μM, Temperature 40.91
[32] = UreG + compound 50μM, Temperature 41.29
[33] = UreG + compound 50μM, Temperature 41.66
[34] = UreG + compound 50μM, Temperature 42.04
[35] = UreG + compound 50μM, Temperature 42.42
[36] = UreG + compound 50μM, Temperature 42.81
[37] = UreG + compound 50μM, Temperature 43.18
[38] = UreG + compound 50μM, Temperature 43.56
[39] = UreG + compound 50μM, Temperature 43.94
[40] = UreG + compound 50μM, Temperature 44.33
[41] = UreG + compound 50μM, Temperature 44.71
[42] = UreG + compound 50μM, Temperature 45.09
[43] = UreG + compound 50μM, Temperature 45.47
[44] = UreG + compound 50μM, Temperature 45.85
[45] = UreG + compound 50μM, Temperature 46.23
[46] = UreG + compound 50μM, Temperature 46.60
[47] = UreG + compound 50μM, Temperature 46.99
[48] = UreG + compound 50μM, Temperature 47.37
[49] = UreG + compound 50μM, Temperature 47.75
[50] = UreG + compound 50μM, Temperature 48.13
[51] = UreG + compound 50μM, Temperature 48.52
[52] = UreG + compound 50μM, Temperature 48.89
[53] = UreG + compound 50μM, Temperature 49.28
[54] = UreG + compound 50μM, Temperature 49.65
[55] = UreG + compound 50μM, Temperature 50.04
[56] = UreG + compound 50μM, Temperature 50.42
[57] = UreG + compound 50μM, Temperature 50.80
[58] = UreG + compound 50μM, Temperature 51.19
[59] = UreG + compound 50μM, Temperature 51.56
[60] = UreG + compound 50μM, Temperature 51.96
[61] = UreG + compound 50μM, Temperature 52.34
[62] = UreG + compound 50μM, Temperature 52.72
[63] = UreG + compound 50μM, Temperature 53.10
[64] = UreG + compound 50μM, Temperature 53.48
[65] = UreG + compound 50μM, Temperature 53.86
[66] = UreG + compound 50μM, Temperature 54.24
[67] = UreG + compound 50μM, Temperature 54.62
[68] = UreG + compound 50μM, Temperature 55.00
[69] = UreG + compound 50μM, Temperature 55.38
[70] = UreG + compound 50μM, Temperature 55.77

T1 sequence (Q09066 whole entry): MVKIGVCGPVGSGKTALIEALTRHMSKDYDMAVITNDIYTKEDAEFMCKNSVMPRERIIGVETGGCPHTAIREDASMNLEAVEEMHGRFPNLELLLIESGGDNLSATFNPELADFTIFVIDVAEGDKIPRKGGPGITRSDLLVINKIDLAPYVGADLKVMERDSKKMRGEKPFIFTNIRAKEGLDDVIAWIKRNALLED

O=C(Cn1c2ccccc2c(=O)c2ccccc21)N/N=C/c1cc([N+](=O)[O-])ccc1N1CCCCCC1 [cmpd8]
Ammonia in medium [1]: 0.5294 mM
Normalized cell survival (%) [1]: low viability
Normalized cell survival (%) ([1]; listed as cmp8): 23.4234%
IC50 [2]: 13.2 ± 7.6 µM
Normalized GTPase activity(%) ([2]; log[μM] 0): 100.3%
Normalized GTPase activity(%) ([2]; log[μM] 0.60206): 93.8%
Normalized GTPase activity(%) ([2]; log[μM] 0.90309): 81.8%
Normalized GTPase activity(%) ([2]; log[μM] 1.20412): 41.6%
Normalized GTPase activity(%) ([2]; log[μM] 1.50515): 32.9%
Normalized GTPase activity(%) ([2]; log[μM] 1.79588): 13.8%
Normalized GTPase activity(%) ([2]; log[μM] 2.09691): 2.1%
Normalized GTPase activity(%) ([2]; log[μM] 2.39794): 16.7%
inhibition at 20 µM [2]: 37 to 72%
Normalized fluo [3]: 1.54
Normalized fluo [3, 4]: 6.82
Normalized fluo [3, 5]: 5.74
Normalized fluo [3, 6]: 4.76
Normalized fluo [3, 7]: 4.03
Normalized fluo [3, 8]: 3.29
Normalized fluo [3, 9]: 2.61
Normalized fluo [3, 10]: 2.02
Normalized fluo [3, 11]: 1.65
Normalized fluo [3, 12]: 1.24
Normalized fluo [3, 13]: 0.72
Normalized fluo [3, 14]: 0.51
Normalized fluo [3, 15]: 0.31
Normalized fluo [3, 16]: 0.0654
Normalized fluo [3, 17]: 0.00
Normalized fluo [3, 18]: 0.22
Normalized fluo [3, 19]: 0.34
Normalized fluo [3, 20]: 0.64
Normalized fluo [3, 21]: 0.86
Normalized fluo [3, 22]: 2.00
Normalized fluo [3, 23]: 2.40
Normalized fluo [3, 24]: 3.05
Normalized fluo [3, 25]: 3.75
Normalized fluo [3, 26]: 4.78
Normalized fluo [3, 27]: 5.95
Normalized fluo [3, 28]: 7.06
Normalized fluo [3, 29]: 8.20
Normalized fluo [3, 30]: 9.33
Normalized fluo [3, 31]: 10.80
Normalized fluo [3, 32]: 12.52
Normalized fluo [3, 33]: 14.35
Normalized fluo [3, 34]: 16.04
Normalized fluo [3, 35]: 18.03
Normalized fluo [3, 36]: 19.94
Normalized fluo [3, 37]: 21.90
Normalized fluo [3, 38]: 24.29
Normalized fluo [3, 39]: 26.66
Normalized fluo [3, 40]: 29.44
Normalized fluo [3, 41]: 32.01
Normalized fluo [3, 42]: 34.92
Normalized fluo [3, 43]: 37.82
Normalized fluo [3, 44]: 40.91
Normalized fluo [3, 45]: 43.67
Normalized fluo [3, 46]: 46.80
Normalized fluo [3, 47]: 50.61
Normalized fluo [3, 48]: 53.88
Normalized fluo [3, 49]: 56.90
Normalized fluo [3, 50]: 60.37
Normalized fluo [3, 51]: 63.48
Normalized fluo [3, 52]: 67.05
Normalized fluo [3, 53]: 70.49
Normalized fluo [3, 54]: 73.41
Normalized fluo [3, 55]: 76.19
Normalized fluo [3, 56]: 79.38
Normalized fluo [3, 57]: 82.32
Normalized fluo [3, 58]: 85.00
Normalized fluo [3, 59]: 87.48
Normalized fluo [3, 60]: 89.89
Normalized fluo [3, 61]: 91.67
Normalized fluo [3, 62]: 93.50
Normalized fluo [3, 63]: 95.00
Normalized fluo [3, 64]: 96.08
Normalized fluo [3, 65]: 97.41
Normalized fluo [3, 66]: 98.54
Normalized fluo [3, 67]: 99.22
Normalized fluo [3, 68]: 99.67
Normalized fluo [3, 69]: 100.00
Normalized fluo [3, 70]: 99.66
ΔTm at 50 µM [3]: ~2.5 °C

Cc1cccc(N2CCN(C(=O)c3cc(S(=O)(=O)N(C)C)ccc3N3CCCC3)CC2)c1C [cmpd4]
Ammonia in medium [1]: 0.3373 mM
Normalized cell survival (%) [1]: low viability
Normalized cell survival (%) ([1]; listed as cmp4): 22.5225%
IC50 [2]: 16.8 ± 6.5 µM
Normalized GTPase activity(%) ([2]; log[μM] 0): 97.2%
Normalized GTPase activity(%) ([2]; log[μM] 0.60206): 90.0%
Normalized GTPase activity(%) ([2]; log[μM] 0.90309): 69.0%
Normalized GTPase activity(%) ([2]; log[μM] 1.20412): 56.9%
Normalized GTPase activity(%) ([2]; log[μM] 1.50515): 41.1%
Normalized GTPase activity(%) ([2]; log[μM] 1.79588): 28.1%
Normalized GTPase activity(%) ([2]; log[μM] 2.09691): 11.6%
Normalized GTPase activity(%) ([2]; log[μM] 2.39794): 16.3%
Normalized GTPase activity(%) ([2]; purified Ni-UreG (5 µM), 20 µM small compound): 43.9%
inhibition at 20 µM [2]: 37 to 72%
Normalized fluo [3]: 0.61
Normalized fluo [3, 4]: 4.76
Normalized fluo [3, 5]: 4.12
Normalized fluo [3, 6]: 3.54
Normalized fluo [3, 7]: 2.90
Normalized fluo [3, 8]: 2.50
Normalized fluo [3, 9]: 2.10
Normalized fluo [3, 10]: 1.61
Normalized fluo [3, 11]: 1.32
Normalized fluo [3, 12]: 0.93
Normalized fluo [3, 13]: 0.64
Normalized fluo [3, 14]: 0.41
Normalized fluo [3, 15]: 0.19
Normalized fluo [3, 16]: 0.16
Normalized fluo [3, 17]: 0.06
Normalized fluo [3, 18]: 3.2e-7
Normalized fluo [3, 19]: 0.09
Normalized fluo [3, 20]: 0.11
Normalized fluo [3, 21]: 0.29
Normalized fluo [3, 22]: 0.97
Normalized fluo [3, 23]: 1.58
Normalized fluo [3, 24]: 2.12
Normalized fluo [3, 25]: 2.84
Normalized fluo [3, 26]: 3.60
Normalized fluo [3, 27]: 4.60
Normalized fluo [3, 28]: 5.58
Normalized fluo [3, 29]: 6.65
Normalized fluo [3, 30]: 7.99
Normalized fluo [3, 31]: 9.53
Normalized fluo [3, 32]: 11.09
Normalized fluo [3, 33]: 12.65
Normalized fluo [3, 34]: 14.59
Normalized fluo [3, 35]: 16.59
Normalized fluo [3, 36]: 18.72
Normalized fluo [3, 37]: 21.02
Normalized fluo [3, 38]: 23.41
Normalized fluo [3, 39]: 25.90
Normalized fluo [3, 40]: 28.66
Normalized fluo [3, 41]: 31.01
Normalized fluo [3, 42]: 34.36
Normalized fluo [3, 43]: 37.25
Normalized fluo [3, 44]: 40.25
Normalized fluo [3, 45]: 43.53
Normalized fluo [3, 46]: 46.72
Normalized fluo [3, 47]: 50.00
Normalized fluo [3, 48]: 53.25
Normalized fluo [3, 49]: 56.55
Normalized fluo [3, 50]: 59.79
Normalized fluo [3, 51]: 62.98
Normalized fluo [3, 52]: 66.11
Normalized fluo [3, 53]: 69.46
Normalized fluo [3, 54]: 72.30
Normalized fluo [3, 55]: 75.42
Normalized fluo [3, 56]: 78.05
Normalized fluo [3, 57]: 80.94
Normalized fluo [3, 58]: 83.37
Normalized fluo [3, 59]: 85.74
Normalized fluo [3, 60]: 88.30
Normalized fluo [3, 61]: 90.21
Normalized fluo [3, 62]: 92.02
Normalized fluo [3, 63]: 93.58
Normalized fluo [3, 64]: 95.15
Normalized fluo [3, 65]: 96.31
Normalized fluo [3, 66]: 97.30
Normalized fluo [3, 67]: 98.18
Normalized fluo [3, 68]: 98.87
Normalized fluo [3, 69]: 99.53
Normalized fluo [3, 70]: 100.00
ΔTm at 50 µM [3]: ~2.5 °C
